Measurements: ChEMBL document CHEMBL4483862, “Open-source discovery of chemical leads for next-generation chemoprotective antimalarials” (2018)

System: Plasmodium berghei
Assay: Luciferase/luciferin-expressing antifolate-resistant parasites were used to infect a culture of HepG2 cells that were pre-incubated with compounds. Infected hepatocytes emit light due to the luciferase reaction. Assay results are presented as the percent inhibition of light emission compared to control. […]
Type: functional
Settings: sporozoite; for IC90: read-out: LUCIFERASE INFECTION ASSAY - IC90

Row | SMILES | IC90 | further results
1 | COCCNc1ccc2ncc(-c3ccc(Cl)cc3)n2n1 | 5.92 µM | IC50 (HEPG2TOX_HILL_SLOPE 7.9, HEPG2TOX_R_SQUARED 0.252, PBLUC_HILL_SLOPE 6.86, PBLUC_R_SQUARED 0.283, read-out: LUCIFERASE INFECTION ASSAY - IC50): 4.3 µM
2 | Cc1ccc(NC2=CC(=O)CC(c3ccco3)C2)c(N)c1 (centres undefined) | 6.68 µM | IC50 (HEPG2TOX_HILL_SLOPE 7.93, HEPG2TOX_R_SQUARED 0.791, PBLUC_HILL_SLOPE 1.82, PBLUC_R_SQUARED 0.701, read-out: LUCIFERASE INFECTION ASSAY - IC50): 2 µM
3 | Oc1ccc(-c2cn3c(-c4ccc(Cl)cc4)cnc3cn2)cc1 | 5.63 µM | IC50 (HEPG2TOX_HILL_SLOPE 7.91, HEPG2TOX_R_SQUARED 0.667, PBLUC_HILL_SLOPE 4.16, PBLUC_R_SQUARED 0.739, read-out: LUCIFERASE INFECTION ASSAY - IC50): 3.32 µM
4 | O=C(CCN1CCN(c2ccccc2)CC1)NNC(=O)c1ccc(C(F)(F)F)cn1 | 7.86 µM | IC50 (HEPG2TOX_HILL_SLOPE 7.92, HEPG2TOX_R_SQUARED 0.92, PBLUC_HILL_SLOPE 7.4, PBLUC_R_SQUARED 0.199, read-out: LUCIFERASE INFECTION ASSAY - IC50): 5.84 µM
5 | CCCCCc1nnc(NC(=O)c2nccnc2N)s1 | 4.56 µM | IC50 (HEPG2TOX_HILL_SLOPE 7.97, HEPG2TOX_R_SQUARED 0.296, PBLUC_HILL_SLOPE 11.4, PBLUC_R_SQUARED 0.31, read-out: LUCIFERASE INFECTION ASSAY - IC50): 3.76 µM
6 | CN(C)CCNC(=O)c1ccc(-c2cn3c(-c4cccs4)cnc3cn2)cc1 | > 8.43 µM | IC50 (HEPG2TOX_HILL_SLOPE 7.97, HEPG2TOX_R_SQUARED 0.151, read-out: LUCIFERASE INFECTION ASSAY - IC50): > 8.43 µM
7 | COc1ccc2c(C)cc3nnc(SCC(=O)NCC45CC6CC(CC(C6)C4)C5)n3c2c1 | > 10 µM | IC50 (HEPG2TOX_HILL_SLOPE 7.95, HEPG2TOX_R_SQUARED 0.512, PBLUC_HILL_SLOPE 13.7, PBLUC_R_SQUARED 0.353, read-out: LUCIFERASE INFECTION ASSAY - IC50): 8.94 µM
8 | Cc1ccc2nc(NC(=O)C(C)Oc3ccccc3)c(C(=O)NC3CCCCC3)n2c1 (centres undefined) | > 7.85 µM | IC50 (HEPG2TOX_HILL_SLOPE 7.98, HEPG2TOX_R_SQUARED 0.0955, PBLUC_HILL_SLOPE 9.58, PBLUC_R_SQUARED 0.283, read-out: LUCIFERASE INFECTION ASSAY - IC50): 6.26 µM
9 | Cc1cc(-c2ccccc2)nc(SCc2ccc(C#N)cc2)n1 | 5.95 µM | IC50 (HEPG2TOX_HILL_SLOPE 7.96, HEPG2TOX_R_SQUARED 0.286, PBLUC_HILL_SLOPE 151, PBLUC_R_SQUARED 0.106, read-out: LUCIFERASE INFECTION ASSAY - IC50): 5.87 µM
10 | CC(C)(C)CC(=O)Nc1ccc(-c2nc3ccccc3[nH]2)cc1 | 6 µM | IC50 (HEPG2TOX_HILL_SLOPE 7.93, HEPG2TOX_R_SQUARED 0.604, PBLUC_HILL_SLOPE 0.372, PBLUC_R_SQUARED 0.913, read-out: LUCIFERASE INFECTION ASSAY - IC50): 0.0164 µM
11 | CC(C)c1ccccc1N(C(=O)C1CC(=O)N(CCc2ccccc2)C1)c1nc2ccccc2s1 (centres undefined) | > 10 µM | IC50 (HEPG2TOX_HILL_SLOPE 7.95, HEPG2TOX_R_SQUARED 0.294, read-out: LUCIFERASE INFECTION ASSAY - IC50): > 10 µM
12 | COc1ccc(Nc2nccc3nc(-c4ccc(C)cc4)[nH]c23)cc1 | > 10 µM | IC50 (HEPG2TOX_HILL_SLOPE 7.88, HEPG2TOX_R_SQUARED 0.839, PBLUC_HILL_SLOPE 3.67, PBLUC_R_SQUARED 0.381, read-out: LUCIFERASE INFECTION ASSAY - IC50): 7.4 µM
13 | O=C(NC(=O)c1cc(Br)cc(Br)c1)Nc1cc(C(F)(F)F)cc(C(F)(F)F)c1 | 5.3 µM | IC50 (HEPG2TOX_HILL_SLOPE 7.89, HEPG2TOX_R_SQUARED 0.4, PBLUC_HILL_SLOPE 3.95, PBLUC_R_SQUARED 0.259, read-out: LUCIFERASE INFECTION ASSAY - IC50): 3.04 µM
14 | O=C(Nc1nonc1-c1cccs1)c1ccc(Br)cc1 | 6.36 µM | IC50 (HEPG2TOX_HILL_SLOPE 7.96, HEPG2TOX_R_SQUARED 0.814, PBLUC_HILL_SLOPE 7.42, PBLUC_R_SQUARED 0.0569, read-out: LUCIFERASE INFECTION ASSAY - IC50): 4.73 µM
15 | COc1ccccc1N(C)S(=O)(=O)c1ccc(C(=O)NNC(=O)c2nn(C)c(=O)c3ccccc23)cc1 | > 10 µM | IC50 (HEPG2TOX_HILL_SLOPE 7.89, HEPG2TOX_R_SQUARED 0.384, read-out: LUCIFERASE INFECTION ASSAY - IC50): > 10 µM
16 | COc1ccc(NCC2(c3ccnc(-c4ccccc4Cl)c3)CC2)cc1 | 8.59 µM | IC50 (HEPG2TOX_HILL_SLOPE 7.95, HEPG2TOX_R_SQUARED 0.722, PBLUC_HILL_SLOPE 6.14, PBLUC_R_SQUARED 0.58, read-out: LUCIFERASE INFECTION ASSAY - IC50): 6.01 µM

Row | SMILES | IC90 | further results
17 | COc1cc(N2C(=O)C=CC2=O)cc(OC)c1OC | > 12.5 µM | IC50 (HEPG2TOX_HILL_SLOPE 7.92, HEPG2TOX_R_SQUARED 0.512, PBLUC_HILL_SLOPE 9.52, PBLUC_R_SQUARED 0.0663, read-out: LUCIFERASE INFECTION ASSAY - IC50): > 12.5 µM
18 | Clc1ccc(-c2cnc3cnc(-c4ccc(NCCN5CCOCC5)nc4)cn23)cc1 | 7.4 µM | IC50 (HEPG2TOX_HILL_SLOPE 7.91, HEPG2TOX_R_SQUARED 0.577, PBLUC_HILL_SLOPE 49, PBLUC_R_SQUARED 0.381, read-out: LUCIFERASE INFECTION ASSAY - IC50): 7.08 µM
19 | O=C(N/N=C1\CCCCc2ccccc21)c1cc2ccccc2cc1O | > 10 µM | IC50 (HEPG2TOX_HILL_SLOPE 7.95, HEPG2TOX_R_SQUARED 0.651, read-out: LUCIFERASE INFECTION ASSAY - IC50): > 10 µM
20 | COc1ccc(OCC[N+](C)(Cc2csc(Nc3ccccc3)n2)Cc2csc(Nc3ccccc3)n2)cc1 | 7.93 µM | IC50 (HEPG2TOX_HILL_SLOPE 7.97, HEPG2TOX_R_SQUARED 0.988, PBLUC_HILL_SLOPE 3.3, PBLUC_R_SQUARED 0.694, read-out: LUCIFERASE INFECTION ASSAY - IC50): 4.08 µM
21 | Cn1c2c(cc(-c3ccccc3)c1=O)CN(Cc1cnn(-c3ccc(F)cc3)c1)CC2 | > 7.96 µM | IC50 (HEPG2TOX_HILL_SLOPE 7.96, HEPG2TOX_R_SQUARED 0.425, PBLUC_HILL_SLOPE 14.6, PBLUC_R_SQUARED 0.0729, read-out: LUCIFERASE INFECTION ASSAY - IC50): 7.11 µM
22 | CCOc1cccc(-c2cn3c(-c4cnn(C)c4)cnc3cn2)c1 | > 10.3 µM | IC50 (HEPG2TOX_HILL_SLOPE 7.89, HEPG2TOX_R_SQUARED 0.0776, PBLUC_HILL_SLOPE 1.98, PBLUC_R_SQUARED 0.483, read-out: LUCIFERASE INFECTION ASSAY - IC50): 3.78 µM
23 | CN(C)c1ccc(-c2cnc3cnc(-c4ccc(N)nc4)cn23)cc1 | 8.82 µM | IC50 (HEPG2TOX_HILL_SLOPE 7.95, HEPG2TOX_R_SQUARED 0.49, PBLUC_HILL_SLOPE 26.9, PBLUC_R_SQUARED 0.584, read-out: LUCIFERASE INFECTION ASSAY - IC50): 8.12 µM
24 | FC(F)(F)Oc1cccc(-c2nc3ccnc(Nc4ccccc4)c3[nH]2)c1 | > 10 µM | IC50 (HEPG2TOX_HILL_SLOPE 7.94, HEPG2TOX_R_SQUARED 0.491, PBLUC_HILL_SLOPE 12.6, PBLUC_R_SQUARED 0.533, read-out: LUCIFERASE INFECTION ASSAY - IC50): 8.84 µM
25 | O=[N+]([O-])c1ccc(N2CCc3ccccc32)cc1 | > 13.7 µM | IC50 (HEPG2TOX_HILL_SLOPE 7.98, HEPG2TOX_R_SQUARED 0.901, PBLUC_HILL_SLOPE 21.8, PBLUC_R_SQUARED 0.45, read-out: LUCIFERASE INFECTION ASSAY - IC50): 13.3 µM
26 | CC(OC(=O)c1cc2ccccc2[nH]1)C(=O)Nc1cccc(C#N)c1 (centres undefined) | > 10 µM | IC50 (HEPG2TOX_HILL_SLOPE 7.96, HEPG2TOX_R_SQUARED 0.0358, PBLUC_HILL_SLOPE 3.96, PBLUC_R_SQUARED 0.0932, read-out: LUCIFERASE INFECTION ASSAY - IC50): 8.49 µM
27 | COc1ccc(/C=C2\Oc3cc(O)cc(C)c3C2=O)c(OC)c1 | > 10.6 µM | IC50 (HEPG2TOX_HILL_SLOPE 7.92, HEPG2TOX_R_SQUARED 0.287, PBLUC_HILL_SLOPE 2.15, PBLUC_R_SQUARED 0.542, read-out: LUCIFERASE INFECTION ASSAY - IC50): 6.5 µM
28 | N=C1N/C(=N/NC(=O)c2ccc(CN3C(=O)c4cccc5cccc3c45)cc2)c2ccccc21 | > 10 µM | IC50 (HEPG2TOX_HILL_SLOPE 8, HEPG2TOX_R_SQUARED 0.371, PBLUC_HILL_SLOPE 2.14, PBLUC_R_SQUARED 0.479, read-out: LUCIFERASE INFECTION ASSAY - IC50): 4.48 µM
29 | N#Cc1cc(C(=O)c2ccc([N+](=O)[O-])cc2)c2nc3ccccc3n2c1N | > 10 µM | IC50 (HEPG2TOX_HILL_SLOPE 7.9, HEPG2TOX_R_SQUARED 0.276, PBLUC_HILL_SLOPE 1.76, PBLUC_R_SQUARED 0.097, read-out: LUCIFERASE INFECTION ASSAY - IC50): 9.24 µM
30 | CCCCc1nc2ccccc2n1CC(=O)Nc1cc(S(=O)(=O)N(C)C)ccc1OC | > 10 µM | IC50 (HEPG2TOX_HILL_SLOPE 7.99, HEPG2TOX_R_SQUARED 0.0779, PBLUC_HILL_SLOPE 2.22, PBLUC_R_SQUARED 0.125, read-out: LUCIFERASE INFECTION ASSAY - IC50): > 10 µM
31 | CC(C)c1noc2ncc(C(=O)Nc3ccc(Cl)c(C(F)(F)F)c3)cc12 | 9.79 µM | IC50 (HEPG2TOX_HILL_SLOPE 7.95, HEPG2TOX_R_SQUARED 0.873, PBLUC_HILL_SLOPE 16.7, PBLUC_R_SQUARED 0.65, read-out: LUCIFERASE INFECTION ASSAY - IC50): 8.58 µM
32 | CCOc1ccccc1C(=O)N[C@H](C(=O)Nc1sc2c(c1C(N)=O)CCC2)C(C)C | 9.93 µM | IC50 (HEPG2TOX_HILL_SLOPE 7.99, HEPG2TOX_R_SQUARED 0.813, PBLUC_HILL_SLOPE 17.7, PBLUC_R_SQUARED 0.214, read-out: LUCIFERASE INFECTION ASSAY - IC50): 8.77 µM
